In assay [1] the test system is HPV16 E7 protein in CaSki cells. Put plainly: Cycloheximide chase assay of E7 stability in CaSki cells. Type of assay: cell-based. The following applies: 3 μM for 24 hrs, then 10 μg/ml cycloheximide, E7 alone 40.32±0.94 mins. Here is the method:
FIGS. 2A-2C HBX 19818 treatment destabilized the steady-state level of HPV16 E7. FIG. 2A. Immunoblots showing the protein levels of HPV16 E7, endogenous ubiquitin and USP7. CaSki cells were either transfected with expression plasmids pcDNA 3.1 (left panel) or pcDNA:Flag-USP7, treated with 3 μM of HBX 19818. After 24 hr, the cells were treated with 10 μg/ml cycloheximide at different durations, as indicated. As a control, the cells were also treated with 5 μg/ml MG132 (a proteasome inhibitor) for 2 hrs prior to adding cycloheximide. The cells were harvested and subjected to western blotting using the respective specific antibodies as indicated. Beta-actin (β-actin) was included as a loading control. CHX: cycloheximide; KDa: kilodalton. FIG. 2B. The curves showing the level of HPV16 E7 protein when co-overexpressed with USP7 or treated with HBX 19818 at different time points. The stability of HPV16 E7 was analyzed using the one-phase exponential decay function in GraphPad™ Prism 9. Error bars indicate standard error of the mean (SEM). FIG. 2C. […] Data are expressed as mean±SEM. ns: not significant, P>0.05; *: P<0.05.
We next wanted to assess whether HBX 19818 can reverse USP7-mediated deubiquitination of E7. […] The expression levels of Flag-USP7, endogenous ubiquitin, and E7 were detected using anti-Flag-, ubiquitin- and HPV16 E7-specific antibodies, respectively (FIG. 2A). […]

Assay [2] deals with CaSki (HPV16-positive) cancer cells. The assay can be described thus: Wound-healing (migration) assay, CaSki. It is filed as cell-based, human. The following applies: 24 hrs, DMSO 98.46%±0.36%. Here is the method: (§1) The representative images showing the cell migration of (FIG. 5A) CaSki (HPV16-positive) and (FIG. 5C) SCC25 (HPV-negative) cancer cells after scratching. Cells were seeded into 12-well plate and scratched when reached 100% confluence, followed by incubation with DMSO (vehicle control) or HBX 19818 at concentrations indicated for 24 hours. Cell migration was observed and recorded using a time-lapse microscope every 6 hours. The bar chart comparing the relative coverage areas of (FIG. 5B) CaSki and (FIG. 5D) SCC25 with DMSO or HBX 19818 (n=3). Data indicated are mean±SEM. *: P<0.05; **: P<0.01.
(§2) We performed a wound-healing assay to ascertain the ability of CaSki and SCC25 cells to migrate under HBX 19818 treatment. Cells were seeded into a 12-well plate and cultured to reach 100% confluency. Cells were then scratched to make artificial wounds on the monolayer of cells and incubated with either DMSO or HBX 19818 at 3 μM or 6 μM. Cells migration was monitored using time-lapse microscopy where images were taken 6-hourly for a duration of 24 hrs.

In assay [3] the test system is SCC25 (HPV-negative) cancer cells. The assay can be described thus: Wound-healing (migration) assay, SCC25. It is filed as cell-based, human. The conditions noted are these: SCC25, HBX 19818 versus DMSO, 24 hrs. Here is the method:
as §1, §2

The subject of assay [4] is CaSki (HPV-positive) cancer cells. The assay can be described thus: Matrigel invasion assay, CaSki. It is filed as cell-based, human. The following applies: 24-hr, DMSO 100%. As to the method:
FIGS. 6A-6D. […] The representative images showing the cell invasion of (FIG. 6A) CaSki (HPV-positive) and (FIG. 6C) SCC25 (HPV-negative) cancer cells in the presence of DMSO (vehicle control) or HBX 19818 at concentrations indicated. Cells were seeded into the invasion chamber with plain medium, followed by treatment with either DMSO or HBX 19818 for 24 hours. Cell invasion was observed and recorded using an optical microscope at 40× magnification. The bar graph comparing the relative cell invasion ability of (FIG. 6B) CaSki and (FIG. 6D) SCC25 with DMSO or HBX 19818 (n=3). Data indicated are mean±standard error of the mean (SEM). **: P<0.01; ***: P<0.001.
We next examined the ability of CaSki and SCC25 cells to invade through Matrigel, which mimics the basement membrane. Approximately 5×10^4 of CaSki and SCC25 cells were seeded into the inserts containing serum-free DMEM medium with either DMSO or HBX 19818. We included MCF7, a non-invasive breast cancer cell line as a negative control. DMEM supplemented with 20% FBS was added into the bottom chamber to attract cells to migrate from the upper to the lower surface of the inserts. After 24-hr incubation at 37° C., the non-invasive cells on the upper surface were removed using cotton swabs. Cells on the lower surface were fixed and stained using hematoxylin. […]

Regarding HBX 19818, the “Half-life of E7” value in assay [1] came to 27.45 ± 0.88 min. Moreover, the “Cell migration ability (relative coverage area)” value is recorded as 85.58%±4.39% in assay [2] (3 μM) and 53.24%±8.96% in assay [2] (6 μM). In assay [3], the Cell migration ability entry is listed as “no differences were observed”. For the same substance, the figures for the Relative invasive ability in assay [4] (3 μM) and in assay [4] (6 μM) were 30%±2.97% and 13.85%±1.21%, respectively.
